The subject of series [1] is inflammatory cells such as mast cells and eosinophils. The following applies: cited from earlier work.
The next series addresses histamine 4 receptor (Homo sapiens, UniProt Q9H3N8). The following applies: cited from earlier work.
Series [2] is described as follows: Stability towards hydrolysis and pH during processing in aqueous environment. In kind it is physicochemical. To be noted: compared to the hydrogen sulfate salt; for Stability towards hydrolysis: processing in aqueous, elevated temperatures at least as high as 50° C.
The nature of series [3]: Solid form stability on drying and in water-containing environments. In kind it is physicochemical. To be noted: for Stability during gentle drying: polymorphic forms of the methyl sulfate salt.
Series [4] can be described thus: Solubility in various solvents. In kind it is physicochemical.

The source of these data is US20260103466A1, “PROCESS FOR THE MANUFACTURE OF SALTS AND CRYSTALLINE FORMS OF 1-(8-BROMOPYRIDO[2,3-E][1,2,4]TRIAZOLO[4,3-A]PYRAZIN-4-YL)-NMETHYLAZETIDIN-3-AMINE AND NOVEL CRYSTALLINE FORMS” (JW PHARMACEUTICAL CORPORATION, priority 2022, published 2026).

What is called Solubility is the concentration that dissolves in the medium under given conditions.

Sequence of histamine 4 receptor (Q9H3N8 whole entry): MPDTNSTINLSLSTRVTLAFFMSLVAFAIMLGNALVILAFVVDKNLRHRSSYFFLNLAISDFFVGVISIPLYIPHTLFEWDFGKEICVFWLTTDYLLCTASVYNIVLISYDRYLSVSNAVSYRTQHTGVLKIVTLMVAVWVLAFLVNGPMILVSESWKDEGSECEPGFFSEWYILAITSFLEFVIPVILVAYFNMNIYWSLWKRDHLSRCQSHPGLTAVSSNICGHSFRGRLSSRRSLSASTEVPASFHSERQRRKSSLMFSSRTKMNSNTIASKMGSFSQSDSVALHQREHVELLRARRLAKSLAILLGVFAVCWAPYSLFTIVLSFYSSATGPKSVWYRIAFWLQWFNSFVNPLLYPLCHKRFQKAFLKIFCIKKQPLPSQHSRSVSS

As to `CNC1CN(c2nc3ncc(Br)cc3n3cnnc23)C1` [1-(8-bromopyrido[2,3-e][1,2,4]triazolo[4,3-a]pyrazin-4-yl)-N-methylazetidin-3-amine], in series [1], the “effects against histamine induced infiltration of inflammatory cells” value was “suppressive effects”. Also, the “histamine 4 receptor inhibitory effect” value on histamine 4 receptor is “strong”.

For `CNC1CN(c2nc3ncc(Br)cc3n3cnnc23)C1.CS(=O)(=O)O` [methane sulfonate salt, 1-(8-bromopyrido[2,3-e][1,2,4]triazolo[4,3-a]pyrazin-4-yl)-N-methylazetidin-3-amine methane sulfonate], in series [2], the “pH in aqueous environment” value is listed as “more neutral” and the Stability towards hydrolysis entry was “much more stable”.

Take “1-(8-bromopyrido[2,3-e][1,2,4]triazolo[4,3-a]pyrazin-4-yl)-N-methylazetidin-3-amine methyl sulfate monohydrate [form A]”: the “Drying behaviour of crystal lattice” value in series [3] (freeze dryer or vacuum oven at 60° C.) is recorded as “without collapsing the crystal lattice”. In addition, the “Stability during gentle drying” value in series [3] was “stable”.

For the compound `CNC1CN(c2nc3ncc(Br)cc3n3cnnc23)C1.COS(=O)(=O)O` [Form B, 1-(8-bromopyrido[2,3-e][1,2,4]triazolo[4,3-a]pyrazin-4-yl)-N-methylazetidin-3-amine methyl sulfate anhydrate], the “Stability in water-containing environments” value in series [3] (environments containing 60% water) was “stable”. Moreover, in series [3], the “Stability during gentle drying” value is given as “stable”.

Take “1-(8-bromopyrido[2,3-e][1,2,4]triazolo[4,3-a]pyrazin-4-yl)-N-methylazetidin-3-amine methyl sulfate”: the “Solubility (in words)” value is on record as “intermediate” in series [4] (in 1-propanol acetonitrile and ethanol); “very high” in series [4] (in 1-propanol:H2O (1:5) and DMSO); “very low” in series [4] (in THF, EtOAC, Toluene, MTBE and methyl ethyl ketone); “relatively high” in series [4] (in a number of solvents); “low” in series [4] (in isoamyl alcohol and 2-propanol); “high” in series [4] (in methanol and DMF). The Solubility was 44000 µg/mL in series [4] (solvent 1-propanol/H2O (1:5), solid form A + B); 50 µg/mL in series [4] (solvent 1-propanol, solid form B); 16 µg/mL in series [4] (solvent 2-propanol, solid form A + B); less than 3 µg/mL in series [4] (solvent Acetone, solid form B); 55 µg/mL in series [4] (solvent Acetonitrile, solid form B); 8200 µg/mL in series [4] (solvent DMF, solid form B). Also, the Solubility result was “>/=69000 μg/ml” in series [4] (solvent DMSO, solid form A + C); less than 3 µg/mL in series [4] (solvent EtOAc, solid form B); 110 µg/mL in series [4] (solvent EtOH, solid form B); 6.3 µg/mL in series [4] (solvent Isoamyl alcohol, solid form A + B); less than 3 µg/mL in series [4] (solvent MTBE, solid form A + B); 1600 µg/mL in series [4] (solvent MeOH, solid form B). Further, the Solubility in series [4] (solvent Methyl ethyl ketone, solid form B) was less than 3 µg/mL; in series [4] (solvent THF, solid form B) it was less than 3 µg/mL; in series [4] (solvent Toluene, solid form A + B), less than 3 µg/mL. In addition, the “pH in aqueous environment” value in series [2] is “more neutral”. The Stability towards hydrolysis result in series [2] is on record as “much more stable”.

In the case of “1-(8-bromopyrido[2,3-e][1,2,4]triazolo[4,3-a]pyrazin-4-yl)-N-methylazetidin-3-amine ethyl sulfate”, the Solubility in series [4] (solvent 1,3-dimethyl-2-imidazolidinone, ethyl sulfate form A) was 17000 µg/mL; in series [4] (solvent 1-propanol, ethyl sulfate form A), 37 µg/mL; in series [4] (solvent 2-propanol, ethyl sulfate form A) it was 4.7 µg/mL; in series [4] (solvent Acetone, ethyl sulfate form A), 6.2 µg/mL; in series [4] (solvent Acetonitrile, ethyl sulfate form A) it was 45 µg/mL; in series [4] (solvent Cyclohexane, ethyl sulfate form A), less than 3.5 µg/mL. The Solubility in series [4] (solvent DCM, ethyl sulfate form A) was less than 3.5 µg/mL; in series [4] (solvent DMF, ethyl sulfate form A), 5900 µg/mL; in series [4] (solvent DMSO, ethyl sulfate form A) it was 76000 µg/mL; in series [4] (solvent EtOAc, ethyl sulfate form A), less than 3.5 µg/mL; in series [4] (solvent EtOH, ethyl sulfate form A) it was 120 µg/mL; in series [4] (solvent Isoamyl alcohol, ethyl sulfate form A), 23 µg/mL. The Solubility in series [4] (solvent MTBE, ethyl sulfate form A) is less than 3.5 µg/mL; in series [4] (solvent MeOH, ethyl sulfate form A) it was 1600 µg/mL; in series [4] (solvent Methyl ethyl ketone, ethyl sulfate form A), 200 µg/mL; in series [4] (solvent Toluene, ethyl sulfate form A), less than 3.5 µg/mL. In addition, in series [2], the “pH in aqueous environment” value was “more neutral”. Besides, the Stability towards hydrolysis result in series [2] is “much more stable”.
